Results as given in PubChem BioAssay AID1648 (Sanford-Burnham Center for Chemical Genomics, 2009).
The source made the active and inactive calls. No rule for the calls is given here.

Target: Serine/threonine-protein kinase mTOR (Homo sapiens) (UniProt P42345)
Assay: binders of mTOR FRB domain, biophysical, NMR (AID 1648)
Conditions: NMR binding to FRB domain, chemical shift

Chain of Serine/threonine-protein kinase mTOR (Homo sapiens) (P42345 2015-2114): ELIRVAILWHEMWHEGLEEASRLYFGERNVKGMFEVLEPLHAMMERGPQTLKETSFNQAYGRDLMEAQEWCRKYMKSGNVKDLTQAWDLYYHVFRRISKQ

Row | SMILES | Kd
1 | CCc1c(C)n([O-])c2c([n+]1=O)CCC2 | > 4 mM (inactive)
2 | CCOc1ccc2ccccc2c1C(=O)N1CCOCC1 | > 4 mM (inactive)
3 | CC[C@@]1(O)C[C@H](O[C@H]2C[C@H](N(C)C)[C@H](O)[C@H](C)O2)c2c(cc3c(c2O)C(=O)c2c(O)cccc2C3=O)[C@H]1C(=O)OC | > 4 mM (inactive)
4 | OC1CCCN(Cc2ccccc2)C1 (stereo not drawn) | > 4 mM (inactive)
5 | Cn1c(=O)cc(O)c2ccccc21 | > 4 mM (inactive)
6 | O=C(c1ccco1)N1CCN(Cc2cccc(F)c2)CC1 | > 4 mM (inactive)
7 | CS(=O)(=O)Nc1nnc(Cc2ccccc2)s1 | > 4 mM (inactive)
8 | CC(C)(C)C(=O)N1CCCC1C(=O)O (stereo not drawn) | > 4 mM (inactive)
9 | CCCCN1C(=O)N(C)C2NC(=O)NC21 (stereo not drawn) | > 4 mM (inactive)
10 | Cc1cc(N)no1 | > 4 mM (inactive)
11 | CC(C)C1COc2cc3oc(=O)ccc3cc2O1 (stereo not drawn) | > 4 mM (inactive)
12 | Cn1c(NCc2ccccc2O)nc2ccccc21 | > 4 mM (inactive)
13 | COc1ccc(-c2nnsc2N)cc1 | > 4 mM (inactive)
14 | CSc1nnc(-c2ccccc2NC(C)=O)o1 | > 4 mM (inactive)
15 | NCc1ccc2occc2c1 | > 4 mM (inactive)
16 | CC(=O)c1ccc(NC(=O)c2ocnc2C)cc1 | > 4 mM (inactive)
17 | C=C[C@H]1CN2CC[C@H]1C[C@H]2[C@H](O)c1ccnc2ccccc12 | > 4 mM (inactive)
18 | Cc1ccc(SCc2nc(-c3ccncc3)no2)cc1 | > 4 mM (inactive)
19 | CC(C)=CCC[C@](C)(O)C1CC=C(C)CC1 (stereo partly drawn) | > 4 mM (inactive)
20 | C[C@H]1[C@H](C)CC[C@]2(C(=O)O)CC[C@]3(C)C(=CCC4[C@@]5(C)C[C@@H](O)[C@H](O)[C@@](C)(CO)C5[C@H](O)C[C@]43C)[C@H]12 (stereo partly drawn) | > 4 mM (inactive)
21 | O=C1c2ccncc2C(=O)N1CNc1ccccn1 | > 4 mM (inactive)
22 | OCc1ccc2nsnc2c1 | > 4 mM (inactive)
23 | Cc1cc(O)cc(=O)n1CCCC(=O)O | > 4 mM (inactive)
24 | CC(=O)c1c(C)nc(-c2cccs2)n1O | > 4 mM (inactive)

Row | SMILES | Kd
25 | COc1ccccc1NC(=O)c1ccc(Br)o1 | > 4 mM (inactive)
26 | O=C(Cc1cccs1)N1CCOCC1 | > 4 mM (inactive)
27 | CC(=O)Nc1ccc(NC(=O)N2CCOCC2)cc1 | > 4 mM (inactive)
28 | CC(=O)Nc1cc(C(F)(F)F)ccc1N1CCOCC1 | > 4 mM (inactive)
29 | CCOC(=O)CC1NCCNC1=O (stereo not drawn) | > 4 mM (inactive)
30 | C[N+](C)(C)CC(=O)[O-] | > 4 mM (inactive)
31 | Cn1c(=O)c2c(ncn2CCNC2=NCCC2)n(C)c1=O | > 4 mM (inactive)
32 | Cc1nc(-c2ccc(NS(C)(=O)=O)cc2)cs1 | > 4 mM (inactive)
33 | Cc1nnc2sc(-c3csc4c3CCCC4)nn12 | > 4 mM (inactive)
34 | NC(=S)NC1CCS(=O)(=O)C1 (stereo not drawn) | > 4 mM (inactive)
35 | COc1cc(OC)c2c(=O)c(O)c(-c3ccc(OC)c(OC)c3)oc2c1 | > 4 mM (inactive)
36 | Cc1cc(NC(=O)c2cnn3cccnc23)no1 | > 4 mM (inactive)
37 | COc1cc(C/C=C/c2ccccc2)c(OC)cc1O | > 4 mM (inactive)
38 | O=C(O)CCc1nc2ccccc2[nH]c1=O | > 4 mM (inactive)
39 | c1ccc(CSc2ncccn2)cc1 | > 4 mM (inactive)
40 | CCC(=O)Nc1ccccc1NC(C)=O | > 4 mM (inactive)
41 | CN1CCC(NC(=O)c2cnccn2)CC1 | > 4 mM (inactive)
42 | CN(C)S(=O)(=O)Nc1ccc(Br)cc1F | > 4 mM (inactive)
43 | O=S(=O)(NCc1ccco1)c1cccc2cccnc12 | > 4 mM (inactive)
44 | O=C1N=c2ccccc2=C1c1[nH]c(=S)[nH]c1O | > 4 mM (inactive)
45 | CCOC(=O)c1c(-c2ccncc2)csc1N | > 4 mM (inactive)
46 | C/C=C/c1ccc2c(c1)OCO2 | > 4 mM (inactive)
47 | CN(C)C(=O)CSc1nc(N)cc(=O)[nH]1 | > 4 mM (inactive)
48 | NCc1ccc(CN2CCOCC2)cc1 | > 4 mM (inactive)
